Results taken from patent publication US9237747B2, “Herbicidal compositions comprising 4-amino-3-chloro-5-fluoro-6-(4-chloro-2-fluoro-3-methoxyphenyl) pyridine-2-carboxylic acid or a derivative thereof and insecticides” (priority 2013, dated 2016).
Where two headings read alike, the source gives them in different places.

What was measured:
BRAPP = assay: Postemergence foliar-applied weed control, direct-seeded rice (greenhouse); assay type: in vivo, Brachiaria platyphylla
Excerpt: (§1) Seeds or nutlets of the desired test plant species were planted in a soil matrix prepared by mixing a loam or sandy loam soil (e.g., 28.6 percent silt, 18.8 percent clay, and 52.6 percent sand, with a pH of about 5.8 and an organic matter content of about 1.8 percent) and calcareous grit in an 80 to 20 ratio. The soil matrix was contained in plastic pots with a volume of 1 quart and a surface area of 83.6 square centimeters (cm^2). When required to ensure good germination and healthy plants, a fungicide treatment and/or other chemical or physical treatment was applied. The plants were grown for 8-22 days in a greenhouse with an approximate 14 hour (h) photoperiod which was maintained at about 29° C. during the day and 26° C. during the night. Nutrients (Peters Excel® 15-5-15 5-Ca 2-Mg and iron chelate) were applied in the irrigation solution as needed and water was added on a regular basis. Supplemental lighting was provided with overhead metal halide 1000-Watt lamps as necessary. The plants were employed for testing when they reached the first through fourth true leaf stage.
(§2) Treatments consisted of the acid or esters of 4-amino-3-chloro-6-(4-chloro-2-fluoro-3-methoxyphenyl)-5-fluoropyridine-2-carboxylic acid (Compound A), each formulated as an SC (suspension concentrate), and various insecticidal components alone and in combination. Forms of compound A were applied on an acid equivalent basis.
(§3) Treatment requirements were calculated based upon the rates being tested, the concentration of active ingredient or acid equivalent in the formulation, and a 12 milliliter (mL) application volume at a rate of 187 liters per hectare (L/ha).
(§4) For treatments comprised of formulated compounds, measured amounts of compounds were placed individually in 25 mL glass vials and diluted in a volume of 1.25% volume per volume (v/v) Agri-Dex® crop oil concentrate to obtain 12× stock solutions. […] Application solutions were prepared by adding an appropriate amount of each stock solution (e.g., 1 mL) and diluted to the appropriate final concentrations with the addition of […] of an aqueous mixture of 1.25% (v/v) crop oil concentrate so that the final spray solutions contained 1.25+/−0.05% (v/v) crop oil concentrate.
(§5) As required, additional water and/or 97:3 v/v acetone/DMSO was added to individual application solutions so that the final acetone and DMSO concentrations of the application solutions being compared were 8.1% and 0.25%, respectively.
(§6) All stock solutions and applications solutions were visually inspected for compound compatibility prior to application. Spray solutions were applied to the plant material with an overhead Mandel track sprayer equipped with 8002E nozzles calibrated to deliver 187 L/ha over an application area of 0.503 square meters (m^2) at a spray height of 18 to 20 inches (46 to 50 cm) above average plant canopy height. Control plants were sprayed in the same manner with the solvent blank.
(§7) The treated plants and control plants were placed in a greenhouse as described above and watered by sub-irrigation to prevent wash-off of the test compounds. After approximately 3 weeks, the condition of the test plants as compared to that of the untreated plants was determined visually and scored on a scale of 0 to 100 percent where 0 corresponds to no injury or growth inhibition and 100 corresponds to complete kill.
(§8) Colby's equation was used to determine the herbicidal effects expected from the mixtures (Colby, S. R. Calculation of the synergistic and antagonistic response of herbicide combinations. Weeds 1967, 15, 20-22.).
(§9) The following equation was used to calculate the expected activity of mixtures containing two active ingredients, A and B: Expected=A+B−(A×B/100)

IPOHE = assay type: in vivo, Ipomoea hederacea
Description: as §1, with “When required to ensure good germination and healthy plants, a fungicide treatment and/or other chemical or physical treatment was applied.” left out
as §2, §4, §5, §6, §7, §8, §9

CYPIR = assay type: in vivo, Cyperus iria
Excerpt: as §1, §2, §3, §4, §5, §6, §7, §8, §9

LEFPA = assay: Postemergence foliar-applied weed control, direct-seeded rice (greenhouse); assay type: in vivo, Leptochloa panicoides
Excerpt: as §1, §2, §3, §4, §5, §6, §7, §8, §9

ECHCG = assay type: in vivo, Echinochloa crus-galli
Description: as §1, with “When required to ensure good germination and healthy plants, a fungicide treatment and/or other chemical or physical treatment was applied.” left out
as §2, §4, §5, §6, §7, §8, §9

LEFCH = assay: whole plant or invertebrate; assay type: in vivo, Leptochloa chinensis; settings: for pest or weed control at 140 g/ha / pest or weed control at 280 g/ha / pest or weed control at 560 g/ha: Dinebra chinensis, post-emergence, 528 h, read-out: Visual Weed Control (%) - 22 DAA LEFCH Obs
Description: as §1, with “When required to ensure good germination and healthy plants, a fungicide treatment and/or other chemical or physical treatment was applied.” left out
as §2, §4, §5, §6, §7, §8, §9

LEFFA = assay: Postemergence foliar-applied weed control, direct-seeded rice (greenhouse); assay type: in vivo, Leptochloa fascicularis; settings: 22 DAA
Excerpt: as §1, §2, §3, §4, §5, §6, §7, §8, §9

DIGSA = assay type: in vivo, Digitaria sanguinalis
Description: as §1, with “When required to ensure good germination and healthy plants, a fungicide treatment and/or other chemical or physical treatment was applied.” left out
as §2, §4, §5, §6, §7, §8, §9

CYPES = assay type: in vivo, Cyperus esculentus
Description: as §1, with “When required to ensure good germination and healthy plants, a fungicide treatment and/or other chemical or physical treatment was applied.” left out
as §2, §4, §5, §6, §7, §8, §9

[1] = 22 DAA, 140 g ai/ha alone, second part of Table 18
[2] = 22 DAA, 280 g ai/ha alone, second part of Table 18
[3] = 22 DAA, 560 g ai/ha alone, second part of Table 18

COP(=O)(NC(C)=O)SC (centres unmarked) [Acephate, O,S-dimethyl acetylphosphoramidothioate]
10%: Visual Weed Control (%) - 21 DAA IPOHE Obs (IPOHE; 280 g ai/ha alone)
0%: Visual Weed Control (%) - 21 DAA BRAPP Obs (BRAPP; 140 g ai/ha alone) | Visual Weed Control (%) - 21 DAA BRAPP Obs (BRAPP; 280 g ai/ha alone) | Visual Weed Control (%) - 21 DAA BRAPP Obs (BRAPP; 560 g ai/ha alone) | Visual Weed Control (%) - 21 DAA CYPIR Obs (CYPIR; 140 g ai/ha alone) | Visual Weed Control (%) - 21 DAA CYPIR Obs (CYPIR; 280 g ai/ha alone) | Visual Weed Control (%) - 21 DAA CYPIR Obs (CYPIR; 560 g ai/ha alone)

CCOC(=O)CC(SP(=S)(OC)OC)C(=O)OCC (centres unmarked) [Malathion, S-1,2-bis(ethoxycarbonyl)ethyl O,O-dimethyl phosphorodithioate]
0%: Visual Weed Control (%) - 22 DAA LEFPA Obs (LEFPA; 140 g ai/ha alone) | Visual Weed Control (%) - 22 DAA LEFPA Obs (LEFPA; 280 g ai/ha alone) | Visual Weed Control (%) - 22 DAA LEFPA Obs (LEFPA; 560 g ai/ha alone) | Visual Weed Control (%) - 22 DAA ECHCG Obs (ECHCG; 140 g ai/ha alone) | Visual Weed Control (%) - 22 DAA ECHCG Obs (ECHCG; 280 g ai/ha alone) | Visual Weed Control (%) - 22 DAA ECHCG Obs (ECHCG; 560 g ai/ha alone) | pest or weed control at 140 g/ha (LEFCH; 22 DAA, 140 g ai/ha alone) | pest or weed control at 140 g/ha (LEFCH; [1]) | pest or weed control at 280 g/ha (LEFCH; 22 DAA, 280 g ai/ha alone) | pest or weed control at 280 g/ha (LEFCH; [2]) | pest or weed control at 560 g/ha (LEFCH; 22 DAA, 560 g ai/ha alone) | pest or weed control at 560 g/ha (LEFCH; [3]) | Visual Weed Control (%) - 22 DAA LEFFA Obs (LEFFA; 140 g ai/ha alone) | Visual Weed Control (%) - 22 DAA LEFFA Obs (LEFFA; 280 g ai/ha alone) | Visual Weed Control (%) - 22 DAA LEFFA Obs (LEFFA; 560 g ai/ha alone) | Visual Weed Control (%) - 22 DAA DIGSA Obs (DIGSA; 22 DAA, 140 g ai/ha alone) | Visual Weed Control (%) - 22 DAA DIGSA Obs (DIGSA; [1]) | Visual Weed Control (%) - 22 DAA DIGSA Obs (DIGSA; 22 DAA, 280 g ai/ha alone) | Visual Weed Control (%) - 22 DAA DIGSA Obs (DIGSA; [2]) | Visual Weed Control (%) - 22 DAA DIGSA Obs (DIGSA; 22 DAA, 560 g ai/ha alone) | Visual Weed Control (%) - 22 DAA DIGSA Obs (DIGSA; [3])

CCCCOCCOCCOCc1cc2c(cc1CCC)OCO2 [Piperonyl Butoxide, 5-[[2-(2-butoxyethoxy)ethoxy]methyl]-6-propyl-1,3-benzodioxole]
0%: Visual Weed Control (%) - 22 DAA LEFPA Obs (LEFPA; 140 g ai/ha alone) | Visual Weed Control (%) - 22 DAA LEFPA Obs (LEFPA; 560 g ai/ha alone) | pest or weed control at 140 g/ha (LEFCH) | pest or weed control at 280 g/ha (LEFCH) | pest or weed control at 560 g/ha (LEFCH) | Visual Weed Control (%) - 22 DAA LEFFA Obs (LEFFA; 140 g ai/ha alone) | Visual Weed Control (%) - 22 DAA LEFFA Obs (LEFFA; 560 g ai/ha alone) | Visual Weed Control (%) - 22 DAA DIGSA Obs (DIGSA; in vivo)
5%: Visual Weed Control (%) - 22 DAA LEFPA Obs (LEFPA; 280 g ai/ha alone) | Visual Weed Control (%) - 22 DAA LEFFA Obs (LEFFA; 280 g ai/ha alone)

CNC(=O)Oc1cccc2c1OC(C)(C)C2 [Carbofuran, 2,3-dihydro-2,2-dimethylbenzofuran-7-yl methylcarbamate]
0%: Visual Weed Control (%) - 21 DAA IPOHE Obs (IPOHE; 500 g ai/ha alone) | Visual Weed Control (%) - 21 DAA LEFCH Obs (LEFCH; 500 g ai/ha alone) | Visual Weed Control (%) - 20 DAA CYPES Obs (CYPES; 125 g ai/ha alone) | Visual Weed Control (%) - 20 DAA CYPES Obs (CYPES; 250 g ai/ha alone)

CNC(=O)Oc1cccc2ccccc12 [Carbaryl, 1-naphthalenyl N-methylcarbamate]
0%: Visual Weed Control (%) - 20 DAA BRAPP Obs (BRAPP; 3 g ai/ha alone) | Visual Weed Control (%) - 20 DAA BRAPP Obs (BRAPP; 6 g ai/ha alone) | Visual Weed Control (%) - 20 DAA BRAPP Obs (BRAPP; 12 g ai/ha alone) | Visual Weed Control (%) - 20 DAA IPOHE Obs (IPOHE; 6 g ai/ha alone) | Visual Weed Control (%) - 20 DAA ECHCG Obs (ECHCG; 3 g ai/ha alone) | Visual Weed Control (%) - 20 DAA ECHCG Obs (ECHCG; 6 g ai/ha alone) | Visual Weed Control (%) - 20 DAA ECHCG Obs (ECHCG; 12 g ai/ha alone) | Visual Weed Control (%) - 20 DAA CYPIR Obs (CYPIR; 3 g ai/ha alone) | Visual Weed Control (%) - 20 DAA CYPIR Obs (CYPIR; 6 g ai/ha alone) | Visual Weed Control (%) - 20 DAA CYPIR Obs (CYPIR; 12 g ai/ha alone) | Visual Weed Control (%) - 20 DAA LEFCH Obs (LEFCH; 3 g ai/ha alone) | Visual Weed Control (%) - 20 DAA LEFCH Obs (LEFCH; 6 g ai/ha alone) | Visual Weed Control (%) - 20 DAA LEFCH Obs (LEFCH; 12 g ai/ha alone) | Visual Weed Control (%) - 20 DAA CYPES Obs (CYPES; 24 g ai/ha alone) | Visual Weed Control (%) - 20 DAA CYPES Obs (CYPES; 48 g ai/ha alone) | Visual Weed Control (%) - 20 DAA CYPES Obs (CYPES; 96 g ai/ha alone) | Visual Weed Control (%) - 20 DAA DIGSA Obs (DIGSA; 3 g ai/ha alone) | Visual Weed Control (%) - 20 DAA DIGSA Obs (DIGSA; 6 g ai/ha alone) | Visual Weed Control (%) - 20 DAA DIGSA Obs (DIGSA; 12 g ai/ha alone) | Visual Weed Control (%) - 20 DAA DIGSA Obs (DIGSA; 24 g ai/ha alone) | Visual Weed Control (%) - 20 DAA DIGSA Obs (DIGSA; 48 g ai/ha alone) | Visual Weed Control (%) - 20 DAA DIGSA Obs (DIGSA; 96 g ai/ha alone)
10%: Visual Weed Control (%) - 20 DAA IPOHE Obs (IPOHE; 12 g ai/ha alone)
